Paper PMC10252509, “Study on the In Silico Screening and Characterization, Inhibition Mechanisms, Zinc-Chelate Activity, and Stability of ACE-Inhibitory Peptides Identified in Naked Oat Bran Albumin Hydrolysates” (Foods, 2023)
pIC50: −log10 of the molar value. Where no end group is shown, it is not given here.

Key:
ACE [1] = biological target: T1, ACE (Oryctolagus cuniculus, UniProt P12822); assay: ACE inhibition capacity (HHL substrate, hippuric acid at 228 nm); assay type: biochemical; conditions: synthesized peptide; ACE 25 mU, HHL 8.3 mmol/L, 37 °C, 60 min, absorbance 228 nm; from regression of inhibition vs concentration; n at least 3; read-out: ACE-inhibitory activity (IC50)
T1 construct: purchased Sigma (St. Louis, MO, USA)
T1 sequence (P12822 34-1310): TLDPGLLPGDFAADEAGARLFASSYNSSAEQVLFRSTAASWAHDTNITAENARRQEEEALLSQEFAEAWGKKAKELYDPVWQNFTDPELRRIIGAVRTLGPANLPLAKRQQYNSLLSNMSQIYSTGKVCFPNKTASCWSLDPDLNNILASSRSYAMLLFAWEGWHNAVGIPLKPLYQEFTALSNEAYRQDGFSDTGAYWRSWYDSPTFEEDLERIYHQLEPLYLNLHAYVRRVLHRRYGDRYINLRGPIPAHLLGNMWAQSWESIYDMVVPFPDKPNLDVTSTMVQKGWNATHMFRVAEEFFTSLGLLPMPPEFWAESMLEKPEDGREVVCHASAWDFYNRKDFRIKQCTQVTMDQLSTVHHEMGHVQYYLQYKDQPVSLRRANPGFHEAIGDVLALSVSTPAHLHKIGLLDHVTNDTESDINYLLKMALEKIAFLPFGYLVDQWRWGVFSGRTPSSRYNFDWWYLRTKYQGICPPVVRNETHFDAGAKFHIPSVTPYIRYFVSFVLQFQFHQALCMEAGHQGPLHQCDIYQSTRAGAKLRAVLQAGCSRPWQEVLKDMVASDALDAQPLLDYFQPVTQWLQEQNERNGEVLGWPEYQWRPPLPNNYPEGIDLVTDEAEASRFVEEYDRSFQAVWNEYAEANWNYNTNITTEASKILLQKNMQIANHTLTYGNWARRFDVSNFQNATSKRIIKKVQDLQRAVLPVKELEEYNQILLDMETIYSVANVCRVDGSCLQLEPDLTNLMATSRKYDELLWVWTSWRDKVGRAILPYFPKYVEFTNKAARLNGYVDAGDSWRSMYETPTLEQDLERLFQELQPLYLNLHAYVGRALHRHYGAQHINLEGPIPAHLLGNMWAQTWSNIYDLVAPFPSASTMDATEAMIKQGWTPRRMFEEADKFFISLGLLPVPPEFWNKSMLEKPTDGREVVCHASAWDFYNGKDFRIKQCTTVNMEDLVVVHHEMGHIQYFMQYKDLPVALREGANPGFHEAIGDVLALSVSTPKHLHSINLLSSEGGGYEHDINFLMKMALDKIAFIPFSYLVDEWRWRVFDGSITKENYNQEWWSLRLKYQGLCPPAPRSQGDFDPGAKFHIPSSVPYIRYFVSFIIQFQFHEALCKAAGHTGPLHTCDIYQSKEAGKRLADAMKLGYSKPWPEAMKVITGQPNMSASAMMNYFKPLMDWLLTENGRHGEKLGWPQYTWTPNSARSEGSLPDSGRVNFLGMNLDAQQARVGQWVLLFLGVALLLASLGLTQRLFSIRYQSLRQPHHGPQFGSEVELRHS
Protocol: Briefly, ACE (25 mU) was pre-incubated at 37 °C for 10 min. Then, ACE (75 µL), 225 µL of HHL (8.3 mmol/L), and peptide solution (75 µL) were mixed and stirred at 75 r/min and 37 °C for 60 min [28]. The reaction was stopped through the addition of 0.375 mL of HCl (1 mol/L). Next, 2.1 mL of ethyl acetate was added to extract the produced hippuric acid. After centrifugation at 14,000× g for 150 s, 1 mL of the upper solution (ethyl acetate extraction) was transferred into a glass test tube and heated at 120 °C for 32 min. Then, deionized water (1 mL) was added and determined at 228 nm. The control group was subjected to the same procedures but without samples. The inhibition ability of the samples toward ACE was defined as the percentage of the difference in absorbance at 228 nm between the sample and control compared to the absorbance of the control at 228 nm. The concentration of peptides needed to inhibit half of ACE activity was defined as IC50.

ACE [2] = tested on: ACE; set-up: method as in 2 sources, one per row (each row's own in cited_ref): ref [24] = [24]; PMID 32220144; doi:10.1111/1750-3841.15115; 24. Zheng Y. Wang X. Zhuang Y. Li Y. Shi P.Q. Tian H. Li X.T. Chen X. Isolation of novel ACE-inhibitory peptide from naked oat globulin hydrolysates in silico approach: Molecular docking, in vivo anti ||| ref [4],[35] = [4]; doi:10.1016/j.lwt.2022.114008; 4. Renjuan L. Xiuli Z. Liping S. Yongliang Z. Identification, in silico screening, and molecular docking of novel ACE inhibitory peptides isolated from the edible symbiot Boletus griseus-Hypomyces chr || [35]; doi:10.1016/j.lwt.2022.113196; 35. Wei G. Zhao Q. Wang D. Fan Y. Shi Y. Huang A. Novel ACE inhibitory, antioxidant and α-glucosidase inhibitory peptides identified from fermented rubing cheese through peptidomic and molecular docki; conditions: literature comparison; ref [4],[35]; read-out: ACE inhibition IC50; cited from earlier work
[3] = Zinc solubility of peptide-Zn complexes during simulated gastrointestinal digestion; conditions: intestinal phase, from 120 to 240 min; PAR method
[4] = Zn-chelating ability (4-(2-Pyridinazo)-resorcinol colorimetric method); assay type: physicochemical; conditions: 350 μg sample, zinc sulfate 0.25 mmol/L, HEPES-KOH, DTT, 37 °C, 12 min; PAR method, 500 nm; reduction of zinc ions per mass of sample; mean ± SD, n at least 3
Protocol: NOBAH peptides (350 μg), 0.5 mL zinc sulfate solution (0.25 mmol/L), 0.5 mL DTT (8 mmol/L), 1 mL HEPES-KOH buffer (100 μmol/L), and 8 mL dH2O were mixed thoroughly. After stirring at 37 °C and 175 r/min for 12 min, 1 mL of reaction solution was sucked out and used for zinc concentration determination using the 4-(2-Pyridinazo)-resorcinol method. The standard regression curve of zinc concentration (x, μg/mL) with the absorbance at 500 nm (y) was y = 0.0901n(x) + 0.1012, R^2 = 0.9802 [27]. The zinc chelation rate of the sample was defined as the reduction of zinc ions in the reaction solution per mass of the sample (mg/g).
Amino acid sequence identification was conducted on a Q Exactive hybrid quadrupole orbitrap mass spectrometer (Thermo Fisher, Bremen, Germany) according to the description of Li et al.. Peak-Studio-7.5-De-Novo™ software (Bioinformatics Solutions, Inc., Waterloo, ON, Canada) was employed to analyze data from the mass spectrometer. The National Center for Biotechnology Information Database (Bethesda, MD, USA) was used for the verification of the obtained sequences. The PAR colorimetric method was employed to measure the Zn-chelating ability of the obtained sequences. Potential antihypertensive effects were predicted using the database AHTPDB [29]. […] Moreover, the physicochemical characteristics of the obtained peptides were analyzed with the database AHTPDB.

Compound | pIC50 (ACE [1]) | pIC50 (ACE [2]) | further results
GYHGH [GYHGH, Gly-Tyr-His-Gly-His] | 3.49 | – | –
QPHQPL [peptide identified in rubing cheese] | – | 3.33 | –
LFRPE | – | 4.95 | –
O=C([O-])[C@H](O)[C@@H](O)[C@H](O)[C@H](O)CO.O=C([O-])[C@H](O)[C@@H](O)[C@H](O)[C@H](O)CO.[Zn+2] [zinc gluconate, Zinc gluconate] | – | – | Zinc solubility compared with zinc sulfate [3]: higher zinc solubility than that of zinc sulfate
QYVPF [QYVPF, Gln-Tyr-Val-Pro-Phe] | 3.61 | – | –
GTTGGMGT [peptide identified in NOBAH-6-D] | – | – | Zinc chelating capacity [4]: 3.36 ± 0.16 e mg/g
